Experimental data taken from ChEMBL document CHEMBL5120798, “Design and synthesis of an N-benzyl 5-(4-sulfamoylbenzylidene-2-thioxothiazolidin-4-one scaffold as a novel NLRP3 inflammasome inhibitor” (Bioorg Med Chem Lett, 2022).
Activity calls are given as the source filed them. The calls are words filed in the database; no cut-off is given here.

Tests used:
Assay type in all cases: cell-based
[1] = molecular target: NACHT, LRR and PYD domains-containing protein 3 (Mus musculus) (UniProt Q8R4B8); assay: Inhibition of NLRP3 inflammasome activation in LPS-primed mouse BMDM cells assessed as reduction in LPS/ATP induced cleaved IL-1beta release in supernatant at 2 uM preincubated for 30 mins followed by LPS addition for 3 hrs prior to ATP addition for 30 mins by Western blot analysis; settings: time 4.0 hrs
Sequence of NACHT, LRR and PYD domains-containing protein 3 (Mus musculus) (Q8R4B8 whole entry, the tested form may be a part): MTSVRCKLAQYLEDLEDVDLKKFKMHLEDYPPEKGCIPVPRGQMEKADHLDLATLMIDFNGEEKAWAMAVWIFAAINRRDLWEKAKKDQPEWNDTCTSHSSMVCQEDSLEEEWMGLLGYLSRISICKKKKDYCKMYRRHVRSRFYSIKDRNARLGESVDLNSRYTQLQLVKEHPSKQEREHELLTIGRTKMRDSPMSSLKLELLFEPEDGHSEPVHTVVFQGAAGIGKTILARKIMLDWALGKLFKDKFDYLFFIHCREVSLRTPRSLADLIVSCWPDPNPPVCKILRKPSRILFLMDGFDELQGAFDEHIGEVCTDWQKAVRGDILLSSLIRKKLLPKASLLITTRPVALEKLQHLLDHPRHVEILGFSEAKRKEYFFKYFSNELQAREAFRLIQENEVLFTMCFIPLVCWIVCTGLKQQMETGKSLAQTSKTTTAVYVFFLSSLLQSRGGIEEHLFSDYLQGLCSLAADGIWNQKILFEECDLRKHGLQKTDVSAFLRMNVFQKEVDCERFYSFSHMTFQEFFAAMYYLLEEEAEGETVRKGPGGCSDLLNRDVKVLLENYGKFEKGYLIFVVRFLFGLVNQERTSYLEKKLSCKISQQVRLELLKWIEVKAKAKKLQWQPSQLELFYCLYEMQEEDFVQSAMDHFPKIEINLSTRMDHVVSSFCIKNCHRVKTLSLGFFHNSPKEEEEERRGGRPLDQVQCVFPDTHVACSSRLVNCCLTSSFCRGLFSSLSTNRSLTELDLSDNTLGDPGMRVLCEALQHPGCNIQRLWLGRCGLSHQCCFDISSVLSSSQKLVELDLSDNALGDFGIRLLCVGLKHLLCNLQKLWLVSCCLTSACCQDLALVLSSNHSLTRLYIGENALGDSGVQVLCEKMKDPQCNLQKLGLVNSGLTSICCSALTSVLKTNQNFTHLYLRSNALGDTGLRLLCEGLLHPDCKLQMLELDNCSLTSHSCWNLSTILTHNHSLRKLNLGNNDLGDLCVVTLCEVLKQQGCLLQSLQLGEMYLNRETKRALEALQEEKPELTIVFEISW

[2] = molecular target: NACHT, LRR and PYD domains-containing protein 3 (Mus musculus) (UniProt Q8R4B8); assay: Inhibition of NLRP3 inflammasome activation in LPS-primed mouse BMDM cells assessed as reduction in LPS/ATP induced cleaved caspase 1 level in supernatant preincubated for 30 mins followed by LPS addition for 3 hrs prior to ATP addition for 30 mins by Western blot analysis; settings: dose 4-10 µM, time 4.0 hrs, DDE = dose-dependent effect
[3] = molecular target: NACHT, LRR and PYD domains-containing protein 3 (Homo sapiens) (UniProt Q96P20); assay: Inhibition of NLRP3 inflammasome assembly in human THP-1 cells assessed as reduction in ASC oligomers formation
Sequence of NACHT, LRR and PYD domains-containing protein 3 (Homo sapiens) (Q96P20 whole entry, the tested form may be a part): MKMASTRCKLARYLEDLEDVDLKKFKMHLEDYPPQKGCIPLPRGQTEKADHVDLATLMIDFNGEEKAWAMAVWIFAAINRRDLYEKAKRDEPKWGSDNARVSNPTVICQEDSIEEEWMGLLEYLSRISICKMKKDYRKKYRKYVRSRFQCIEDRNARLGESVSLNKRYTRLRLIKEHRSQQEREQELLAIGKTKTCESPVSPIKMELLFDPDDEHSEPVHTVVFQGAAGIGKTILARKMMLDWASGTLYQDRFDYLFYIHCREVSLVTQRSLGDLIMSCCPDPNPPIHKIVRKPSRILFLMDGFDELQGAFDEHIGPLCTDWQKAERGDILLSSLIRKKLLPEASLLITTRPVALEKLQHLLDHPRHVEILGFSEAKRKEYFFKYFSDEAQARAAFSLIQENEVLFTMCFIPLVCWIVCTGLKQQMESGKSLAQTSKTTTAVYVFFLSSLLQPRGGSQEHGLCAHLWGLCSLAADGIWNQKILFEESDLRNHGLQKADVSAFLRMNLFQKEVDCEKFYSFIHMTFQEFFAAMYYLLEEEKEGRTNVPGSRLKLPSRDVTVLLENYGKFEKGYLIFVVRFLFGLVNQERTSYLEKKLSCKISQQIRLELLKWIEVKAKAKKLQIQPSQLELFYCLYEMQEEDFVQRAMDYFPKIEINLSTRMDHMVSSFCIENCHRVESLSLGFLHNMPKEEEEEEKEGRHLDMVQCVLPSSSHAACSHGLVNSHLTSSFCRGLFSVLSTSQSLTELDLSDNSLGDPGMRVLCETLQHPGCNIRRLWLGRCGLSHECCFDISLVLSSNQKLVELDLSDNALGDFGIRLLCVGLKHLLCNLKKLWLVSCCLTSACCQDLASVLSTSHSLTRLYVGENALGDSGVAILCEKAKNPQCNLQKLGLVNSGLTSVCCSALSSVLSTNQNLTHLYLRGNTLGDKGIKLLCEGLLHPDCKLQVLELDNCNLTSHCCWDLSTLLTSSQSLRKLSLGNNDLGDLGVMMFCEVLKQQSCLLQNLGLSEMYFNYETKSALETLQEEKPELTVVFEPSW

[4] = molecular target: NACHT, LRR and PYD domains-containing protein 3 (Mus musculus) (UniProt Q8R4B8); assay: Inhibition of NLRP3 inflammasome assembly in LPS/nigericin stimulated mouse BMDM cells assessed as reduction in NLRP3 specks; settings: concentration not given here
[5] = molecular target: NACHT, LRR and PYD domains-containing protein 3 (Mus musculus) (UniProt Q8R4B8); assay: Inhibition of NLRP3 inflammasome activation in LPS-primed mouse BMDM cells assessed as reduction in LPS/ATP induced cleaved IL-1beta release in supernatant preincubated for 30 mins followed by LPS addition for 3 hrs prior to ATP addition for 30 mins by Western blot analysis; settings: dose 4-10 µM, time 4.0 hrs, DDE = dose-dependent effect

SMILES	inhibition [1]	inhibition [2]	inhibition [3]	inhibition [4]	inhibition [5]
CCCCOc1ccc(Cl)cc1CN1C(=O)/C(=C/c2ccc(S(N)(=O)=O)cc2)SC1=S	Active				
COc1ccc(Cl)c(CN2C(=O)/C(=C/c3ccc(S(N)(=O)=O)cc3)SC2=S)c1		Dde	Active	60%	Dde
NS(=O)(=O)c1ccc(/C=C2\SC(=S)N(Cc3cccc(Cl)c3)C2=O)cc1	Active				
COc1ccccc1CN1C(=O)/C(=C/c2ccc(S(N)(=O)=O)cc2)SC1=S	Active				
COc1ccc(Cl)cc1CN1C(=O)/C(=C/c2ccc(S(N)(=O)=O)cc2)SC1=S		Dde	Active	60%	Dde
